From patent US8586608B2, “Quinazoline derivatives and pharmaceutical compositions containing them” (Boehringer Ingelheim Pharma GmbH & Co. KG, priority 2000, dated 2013) come the findings set out here.

Structures are written as SMILES.

The target in data set [1] is T1, human EGF-receptor kinase (Homo sapiens, UniProt P00533).
T1 construct: GST; made in house; host or cells: Sf9 insect cells (baculovirus)
The experiment in a line: Inhibition of human EGF-receptor kinase (ELISA, bio-pEY substrate). The format is biochemical. The note with it: cytoplasmic tyrosine kinase domain (Met664-Ala1186) as GST fusion protein; substrate pEY (4:1)/bio-pEY; 30 minutes at ambient temperature. In general terms: ELISA stands for enzyme-linked immunosorbent assay.
Description: To do this, the protein was expressed in Sf9 insect cells as a GST fusion protein using the Baculovirus expression system.
The enzyme activity was measured in the presence or absence of the test compounds in serial dilutions. The polymer pEY (4:1) produced by SIGMA was used as the substrate. Biotinylated pEY (bio-pEY) was added as the tracer substrate. Every 100 μl of reaction solution contained 10 μl of the inhibitor in 50% DMSO, 20 μl of the substrate solution (200 mM HEPES pH 7.4, 50 mM magnesium acetate, 2.5 mg/ml poly(EY), 5 μg/ml bio-pEY) and 20 μl of enzyme preparation. The enzyme reaction was started by the addition of 50 μl of a 100 μM ATP solution in 10 mM magnesium chloride. The dilution of the enzyme preparation was adjusted so that the incorporation of phosphate into the bio-pEY was linear in terms of time and quantity of enzyme. The enzyme preparation was diluted in 20 mM HEPES pH 7.4, 1 mM EDTA, 130 mM common salt, 0.05% Triton X-100, 1 mM DTT and 10% glycerol.
The enzyme assays were carried out at ambient temperature over a period of 30 minutes and were ended by the addition of 50 μl of a stopping solution (250 mM EDTA in 20 mM HEPES pH 7.4). 100 μl were placed on a streptavidin-coated microtiter plate and incubated for 60 minutes at ambient temperature. Then the plate was washed with 200 μl of a washing solution (50 mM Tris, 0.05% Tween 20). After the addition of 100 μl of a HRPO-labelled anti-PY antibody (PY20H Anti-PTyr:HRP produced by Transduction Laboratories, 250 ng/ml), it was incubated for 60 minutes. Then the microtiter plate was washed three times with 200 μl of washing solution. The samples were then combined with 100 μl of a TMB-peroxidase solution (A:B=1:1, Kirkegaard Perry Laboratories). After 10 minutes, the reaction was stopped. The extinction was measured at OD450nm with an ELISA reader. All data points were measured three times.
The data were matched by means of an iterative calculation using an analytical program for sigmoidal curves (Graph Pad Prism Version 3.0) with variable Hill pitch.

T1 sequence (P00533 688-1210): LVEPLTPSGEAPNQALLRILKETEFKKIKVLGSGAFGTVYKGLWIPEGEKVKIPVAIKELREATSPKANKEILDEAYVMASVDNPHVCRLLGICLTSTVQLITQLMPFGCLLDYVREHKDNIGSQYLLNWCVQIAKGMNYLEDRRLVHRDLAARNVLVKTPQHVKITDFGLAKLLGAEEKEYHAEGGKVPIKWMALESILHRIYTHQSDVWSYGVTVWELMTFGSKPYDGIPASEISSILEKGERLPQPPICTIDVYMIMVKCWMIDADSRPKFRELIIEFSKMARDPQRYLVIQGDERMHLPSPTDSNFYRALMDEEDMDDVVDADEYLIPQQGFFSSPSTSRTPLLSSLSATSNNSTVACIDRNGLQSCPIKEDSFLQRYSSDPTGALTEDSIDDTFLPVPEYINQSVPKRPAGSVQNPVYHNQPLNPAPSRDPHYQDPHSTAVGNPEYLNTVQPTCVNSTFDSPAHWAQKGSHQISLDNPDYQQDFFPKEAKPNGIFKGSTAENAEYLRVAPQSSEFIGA

The IC50 is the concentration that inhibits the measured activity by half. A higher IC50 goes with lower potency. Usually melting point stands for the temperature of the solid-liquid transition. The compound `CN(CC=CC(=O)Nc1cc2c(Nc3ccc(F)c(Cl)c3)ncnc2cc1OC1CCCC1)C1CC1` [1 (22), 4-[(3-chloro-4-fluorophenyl)amino]-6-{[4-(N-cyclopropyl-N-methylamino)-1-oxo-2-buten-1-yl]amino}-7-cyclopentyloxyquinazoline] returned a melting point of 140 °C. In data set [1], the IC50 was determined as 1000 pM.
`O=C(C=CCN1CCOCC1)Nc1cc2c(Nc3ccc(F)c(Cl)c3)ncnc2cc1OCC1CCOCC1` [Example 1 (29), 4-[(3-chloro-4-fluorophenyl)amino]-6-{[4-(morpholin-4-yl)-1-oxo-2-buten-1-yl]amino}-7-[(tetrahydropyran-4-yl)methoxy]quinazoline] gave a melting point of 174 °C.
Take `CCN(C)CC=CC(=O)Nc1cc2c(Nc3ccc(F)c(Cl)c3)ncnc2cc1O[C@H]1CCOC1` [1 (33), 4-[(3-chloro-4-fluorophenyl)amino]-6-{[4-(N-ethyl-N-methylamino)-1-oxo-2-buten-1-yl]amino}-7-[(s)-(tetrahydrofuran-3-yl)oxy]quinazoline]: the melting point lay in the range of 154 to 157 °C. In data set [1], half-maximal inhibition (IC50) was put at 500 pM.
For the compound `CN(C)CC=CC(=O)Nc1cc2c(Nc3ccc(F)c(Cl)c3)ncnc2cc1OC1CCCC1` [1 (2), 4-[(3-chloro-4-fluorophenyl)amino]-6-{[4-(N,N-dimethylamino)-1-oxo-2-buten-1-yl]amino}-7-cyclopentyloxyquinazoline], the IC50 in data set [1] amounted to 600 pM.
In turn, `O=C(C=CCN1CCOCC1)Nc1cc2c(Nc3ccc(F)c(Cl)c3)ncnc2cc1O[C@H]1CCOC1` [Example 1 (35), 4-[(3-chloro-4-fluorophenyl)amino]-6-{[4-(morpholin-4-yl)-1-oxo-2-buten-1-yl]amino}-7-[(s)-(tetrahydrofuran-3-yl)oxy]quinazoline] showed a melting point of 184 to 185 °C.
In turn, `CN(CC=CC(=O)Nc1cc2c(Nc3ccc(F)c(Cl)c3)ncnc2cc1OC1CCCC1)C[C@H]1CCCO1` [Example 1 (26), 4-[(3-chloro-4-fluorophenyl)amino]-6-[(4-{(R)—N-[(tetrahydrofuran-2-yl)methyl]-N-methylamino}-1-oxo-2-buten-1-yl)amino]-7-cyclopentyloxyquinazoline] gave a melting point of 117 to 121 °C.
As to `CN(CC=CC(=O)Nc1cc2c(Nc3ccc(F)c(Cl)c3)ncnc2cc1OCC1CC1)C[C@H]1CCCO1` [Example 1 (19), 4-[(3-chloro-4-fluorophenyl)amino]-6-[(4-{(R)—N-[(tetrahydrofuran-2-yl)methyl]-N-methylamino}-1-oxo-2-buten-1-yl)amino]-7-cyclopropylmethoxyquinazoline], the melting point was 149 to 153 °C.
In data set [1], `CN(C)CC=CC(=O)Nc1cc2c(Nc3ccc(F)c(Cl)c3)ncnc2cc1OC[C@@H]1CCCO1` [1 (32), 4-[(3-chloro-4-fluorophenyl)amino]-6-{[4-(N,N-dimethylamino)-1-oxo-2-buten-1-yl]amino}-7-[(s)-(tetrahydrofuran-2-yl)methoxy]quinazoline] returned an IC50 of 300 pM.
Still for that read-out and setting: the result for `COCCN(CC=CC(=O)Nc1cc2c(N[C@H](C)c3ccccc3)ncnc2cc1OCC1CC1)CCOC` [1 (3), 4-[(R)-(1-phenylethyl)amino]-6-{[4-(N,N-bis(2-methoxyethyl)amino)-1-oxo-2-buten-1-yl]amino}-7-cyclopropylmethoxyquinazoline] reads 4000 pM; that for `COCCN(C)CC=CC(=O)Nc1cc2c(N[C@H](C)c3ccccc3)ncnc2cc1OCC1CC1` [1 (5), 4-[(R)-(1-phenylethyl)amino]-6-({4-[N-(2-methoxyethyl)-N-methylamino]-1-oxo-2-buten-1-yl}amino)-7-cyclopropylmethoxyquinazoline], 3000 pM.
Compound `CC(C)N(C)CC=CC(=O)Nc1cc2c(Nc3ccc(F)c(Cl)c3)ncnc2cc1O[C@H]1CCOC1` [1 (34), 4-[(3-chloro-4-fluorophenyl)amino]-6-{[4-(N-isopropyl-N-methylamino)-1-oxo-2-buten-1-yl]amino}-7-[(s)-(tetrahydrofuran-3-yl)oxy]quinazoline] had an IC50 in data set [1] of 400 pM.
In turn, `CN(CC=CC(=O)Nc1cc2c(Nc3ccc(F)c(Cl)c3)ncnc2cc1OCC1CC1)CC1CCOCC1` [Example 1 (24), 4-[(3-chloro-4-fluorophenyl)amino]-6-[(4-{N-[(tetrahydropyran-4-yl)methyl]-N-methylamino}-1-oxo-2-buten-1-yl)amino]-7-cyclopropylmethoxyquinazoline] gave a melting point of 141 °C.
`CN(C)CC=CC(=O)Nc1cc2c(Nc3ccc(F)c(Cl)c3)ncnc2cc1OC[C@H]1CCCO1` [Example 1 (31), 4-[(3-chloro-4-fluorophenyl)amino]-6-{[4-(N,N-dimethylamino)-1-oxo-2-buten-1-yl]amino}-7-[(R)-(tetrahydrofuran-2-yl)methoxy]quinazoline]: the melting point is 110 to 112 °C.
As for `COCCN(CC=CC(=O)Nc1cc2c(Nc3ccc(F)c(Cl)c3)ncnc2cc1OCC1CCOCC1)CCOC` [Example 1 (30), 4-[(3-chloro-4-fluorophenyl)amino]-6-({4-[N,N-bis(2-methoxyethyl)amino]-1-oxo-2-buten-1-yl}amino)-7-[(tetrahydropyran-4-yl)methoxy]quinazoline], the melting point was 100 to 102 °C.
Turning to `COCCN(C)CC=CC(=O)Nc1cc2c(Nc3ccc(F)c(Cl)c3)ncnc2cc1OCC1CC1` [Example 1, [(3-chloro-4-fluorophenyl)amino]-6-({4-[N-(2-methoxyethyl)-N-methylamino]-1-oxo-2-buten-1-yl}amino)-7-cyclopropylmethoxyquinazoline], in data set [1], the IC50 was found to be 700 pM.
